Results reported in patent publication US20190112580A1, “METHODS FOR TREATING CO[…] AND RELATED CULTURED CELLS” (priority 2017, published 2019).

Assays:
[1] = system: myoblast cell preparation; assay: 5-AZA concentration and medium finding in myoblast cell preparation
Excerpt: The myoblast cell preparation may be cultured in a proliferation medium in the presence of a DNA methyltransferase inhibitor, such as 5-AZA. A DNA methyltransferase inhibitor may be introduced while the myoblast cell preparation is being developed in the proliferation medium. For instance, a DNA methyltransferase inhibitor may be introduced once the myoblast cell preparation is at 50-80% cell confluence by visual inspection. A higher confluence percentage or density may be appropriate, so long as the confluence is not so high that the cells become overcrowded or grow in multiple layers, resulting in spontaneous cell fusion and/or cell death. The DNA methyltransferase inhibitor may be introduced earlier, for instance, at the same time the isolated satellite cells are added to the proliferation medium. […] Concentrations of DNA methyltransferase inhibitor used may vary. For example, the myoblast cell preparation may be cultured in proliferation medium in the presence of 5 μM of 5-AZA. […] The myoblast cell preparation may be cultured in the presence of a DNA methyltransferase inhibitor for a period of time. One appropriate period of time using 5 μM of 5-AZA is 24 hours. As few as 6 hours may be appropriate using 5 μM of 5-AZA.

[2] = system: CP patient derived myoblast cells; assay: Myoblast fusion and myotube formation, immunostaining and Fusion Index; type: cell-based, human; conditions: 5 μM, 24 hours pretreatment, 42 hours differentiation
Description: Myotubes were differentiated using the following methods. Once the appropriate level of cell confluence of 50-80% was obtained for the myoblast cell preparation, fusion and differentiation of myoblasts into myotubes was promoted by switching from a high-serum medium to a low-serum differentiation medium. […] Specifically, the high-serum proliferation medium was made of Ham's F10 medium (Corning Life Sciences, Tewksbury, Mass.) combined with 20% Fetal Bovine Serum (“FBS”) (Gibco brand, Thermo Fischer Scientific, Waltham, Mass.) 10 mg/ml streptomycin, and 100 units/ml penicillin (Gibco), human recombinant bFGF (5 ng/ml) (Becton Dickenson). […] Cell preparations cultured in the low-serum differentiation medium may be analyzed for myotube formation starting from about 24 hours to about 6 weeks after switching from the high-serum to the low-serum medium.
For visual and quantitative analysis by immunostaining, the isolated satellite cell-derived myoblast cell preparations were treated for immunostaining. […] Fluorescence microscopy was performed using an epifluorescence or confocal microscope using the 20× air objective, the 40×, or 63× oil immersion objective and zoom rates between 1 and 3 in sequential scanning mode. […]

ITGB1D = ITGB1D protein quantification by Western blotting; type: cell-based, human; conditions: 5 μM applied before differentiation; CP cultures; 48 hours of differentiation in low serum medium
Description: After separation, proteins were transferred to 0.45 μm nitrocellulose membrane in a Tris-glycine buffer complemented with 20% methanol. To visualize bands and detect transfer efficiency, membranes were stained with Ponceau S. Membranes were then blocked in a buffer containing 10 mM Tris, 0.15 M NaCl, 0.1% Tween-20 and 1% BSA and incubated with a desired primary antibody (typically 1:500 to 1:1000 dilution) overnight at 4° C. After washing, membranes were incubated with peroxidase-conjugated secondary antibodies (typically at a 1:1000 dilution) for 1 hour at room temperature (Jackson ImmunoResearch Laboratories). Bandscan was identified using chemiluminescence (ECL). Bands also were analyzed by densitometry on a PXi imager (Syngene) and values expressed as arbitrary values of protein levels, normalized either by total proteins transferred on nitrocellulose membrane (as visualized with Ponceau S) or by another reference protein detected by Western blotting.
To test for protein expression levels as shown in FIG. 3A to 3E and FIGS. 4D and 4E, Western blotting was used. […]

[3] = system: proliferating CP and TD myoblast cultures; assay: Global DNA methylation, MethylFlash Methylated DNA Quantification Kit; type: cell-based, human; conditions: 5 μM, 24 hours; FIG. 9A
Description: FIG. 9A illustrates global methylation levels of DNA in proliferating CP and TD myoblast cultures that were treated or non-treated with 5-AZA. Methylation levels were measured using a MethylFlash Methylated DNA Quantification Kit (EpiGentek, P-1034-96). Myoblasts were seeded into gelatin-coated 10 cm plates. Myoblast cell preparations from CP and TD study subjects were exposed to 5 μM of 5-AZA in proliferation medium. 5-AZA was introduced while the myoblast cell preparations were being developed in the high-serum medium, once the myoblast cell preparations were at about 60% of cell plate confluence by visual inspection. […] The myoblast cell preparations then had the 5-AZA washed off by switching the myoblast cell preparations each to fresh high-serum medium and further expanded to 90% of confluence. DNA was extracted from these cultures using the “DNA Purification from Cultured Cells” protocol as described in the Gentra Puregene DNA isolation kit (Qiagen, 158388).
In FIG. 9A, global methylation levels of DNA were investigated in proliferating CP and TD myoblast cultures that were treated or non-treated with 5-AZA. Methylation levels were measured using a MethylFlash Methylated DNA Quantification Kit (EpiGentek, P-1034-96). Myoblasts were seeded into gelatin-coated 10 cm plates. Myoblast cell preparations from CP and TD study subjects were exposed to 5 μM of 5-AZA in proliferation medium. […]

C2C12 myoblasts = conditions: cited from earlier work
[4] = 5 μM for 3 days (Montesano et al.)

## Nc1ncn([C@@H]2O[C@H](CO)[C@@H](O)[C@H]2O)c(=O)n1 [5-AZA, 5-azacytidine]
[1]; 0.5 μM of 5-AZA
  myotube growth: not sufficiently concentrated to cause appropriate myotube growth
[1]; 50 μM of 5-AZA
  death of the cells: causes the death of the cells in the myoblast cell preparation
[1]; human
  concentrations lethal to cells: ≥ 50 µM
[2]; FIG. 4B
  myoblast fusion and myotube formation, morphologically: sufficient to partially restore myoblast fusion and myotube formation
[2]; FIG. 4C
  myoblast fusion and myotube formation, quantitatively (Fusion Index): sufficient to partially restore myoblast fusion and myotube formation
ITGB1D
  ITGB1D protein expression levels: sufficient to restore ITGB1D protein expression levels
[3]
  global methylation levels of DNA: caused global DNA hypomethylation in both CP and TD patients
C2C12 myoblasts; [4]
  DNA methylation and differentiation: induced DNA hypomethylation and improved differentiation of C2C12 myoblasts
  cytotoxicity: without overt signs of cytotoxicity
C2C12 myoblasts; mouse-derived C2C12 muscle cell lines
  muscle-specific gene expression, myogenesis and myotube formation: promoted expression of muscle-specific genes, enhanced myogenesis and myotube formation
